In patent US9669001B2, “Antimicrobial composition” (CONVATEC TECHNOLOGIES INC., priority 2008, dated 2017):

Key:
Type in all cases: cell-based
P. aeruginosa biofilms [1] = assay: Minimum Biofilm Eradication Concentration (MBEC) method with cyan LED illumination; conditions: combinations in sterile water, cyan LED lamp; FIG. 4
S. aureus biofilms = assay: Photo-catalytic therapy, in vitro wound biofilm model (pork belly); conditions: higher doses of RB and light, post-treatment rinse; FIG. 2
P. aeruginosa biofilms [2] = assay: as above

Compound	effect on the action of RB and light against biofilms (P. aeruginosa biofilms [1])	biofilm cell reductions (S. aureus biofilms)	biofilm removal (reduction in P. aeruginosa) (P. aeruginosa biofilms [2]; 25 μM RB, PCT with post-treatment rinse step, FIG. 1)	P. aeruginosa biofilm bacteria cell killing on raising dose (P. aeruginosa biofilms [2]; RB and light dose increased five-fold, no post-treatment rinse, FIG. 1 bars 2 & 4)
O=C(O)CN(CCN(CC(=O)O)CC(=O)O)CC(=O)O [EDTA, ethylene diamine tetraacetic acid]	potentiates the action of RB and light in a concentration-dependent manner	–	–	–
O=C1OC2(c3cc(I)c(O)c(I)c3Oc3c2cc(I)c(O)c3I)c2c(Cl)c(Cl)c(Cl)c(Cl)c21 [Rose Bengal, 4,5,6,7-Tetrachloro-3′,6′-dihydroxy-2′,4′,5′,7′-tetriodo-3H-spiro[isobenzofuran-1,9′-xanthen]-3-one]	–	over 3 log10	2 log	significantly increased reduction
dialkyl dimethyl ammonium chloride [DDAC]	potentiates the action of RB and light in a concentration-dependent manner	–	–	–
